The subject of this data set is human integrin α4. Description: Inhibition of human integrin α4 protein levels by antisense oligonucleotides (LIPOFECTIN, flow cytometry with CD49d-FITC) in A375 melanoma cells. It is filed as cell-based. Also on record: % Inhib.: tested at 200 nM. As to conditions: for inhibition (Example 11): Example 11 assay, dose not stated. The text has this:
Integrin α4 protein levels can be quantitated in a variety of ways well known in the art, such as immunoprecipitation, Western blot analysis (immunoblotting), ELISA or fluorescence-activated cell sorting (FACS). Antibodies directed to integrin α4 can be identified and obtained from a variety of sources, such as the MSRS catalog of antibodies (Aerie Corporation, Birmingham, Mich.), or can be prepared via conventional antibody generation methods.
Target sites are indicated by nucleotide numbers, as given in the sequence source reference (GenBank accession no. L12002), to which the oligonucleotide binds. All compounds in Table 1 are 18 nucleotides in length, with a phosphorothioate backbone and a centered 10-base deoxynucleotide gap flanked by 2'-methoxyethoxy (2'MOE) wings. Human A375 melanoma cells (American Type Culture Collection, Manassas, Va.) were plated at 2000 cells/cm^2 two days before oligonucleotide treatment. Cells were treated with oligonucleotides at a dose of 200 nM oligonucleotide and 6 ug/ml LIPOFECTIN for four hours. Cells were incubated overnight and harvested with 2 mM EDTA in PBS. Cells were washed in 2% bovine serum albumin, 0.2% sodium azide in D-PBS at 4° C. Cells were centrifuged at 200×g, and the supernatant was decanted. […] Antibodies were incubated with the cells for 30 minutes at 4° C. in the dark, under gentle agitation. Cells were washed again as above and then resuspended in 0.3 ml of FacsFlow buffer with 0.5% formaldehyde. Cells were analyzed on Becton Dickinson FACScan. Results are expressed as percentage of control expression based on mean fluorescence intensity.
Cells were harvested with trypsin at 48 and 72 hours after oligonucleotide treatment and stained with 2 ug/ml CD49d-FITC as in the previous example.
Where backbones are mixed, linkages are shown as "s" for phosphorothioate (P=S or PS) and "o" for phosphodiester (P=O or PO). Where target region is indicated as `M62841,` oligonucleotides are targeted to the promotor region whose sequence is described in GenBank Accession No. M62841. Remaining oligonucleotides are targeted to the sequence described in Genbank Accession No. L12002 and their target sites on the L12002 sequence are indicated.
Target sites refer to nucleotide numbers on the target sequence (GenBank Accession No. L12002) to which the oligonucleotides hybridize.
Oligonucleotides were synthesized as "gapmers" consisting of a 9-nucleotide region of deoxynucleotides flanked by three 2'-O-methoxyethyl(2'-MOE) nucleotides on the 5' end and eight 2'-MOE nucleotides on the 3' end. 2'-MOE nucleotides are shown in bold in the table. Oligonucleotides were synthesized with phosphorothioate backbones throughout, and all cytosines are 5-methylcytosines.

Where [1] appears, read: Table 24, A375 cells, lipofectin, as Example 8.

Consider “24478 (GGCGGGCTGTTTTCCATT; chemistry not given here) [compound 24478]”, for which the “% Control (integrin α4 protein)” value (Table 1, A375 cells, 200 nM oligonucleotide, 6 ug/ml LIPOFECTIN) is recorded as 115%.
For the substance “24739 (TTTAGTGACAAAGACGTTAT; phosphorothioate deoxy, further chemistry not given here) [compound 24739]”, the “% Control” value is, setting by setting: (Table 4, 10 nM) 69%; (Table 4, 30 nM) 67%; (Table 4, 100 nM) 121%; (Table 4, 300 nM) 107%. The “% Inhib.” value is on record as 31% (Table 4, 10 nM) and 33% (Table 4, 30 nM).
On to “24740 (GAAGGCCCCTGGGGAACATT; phosphorothioate deoxy, further chemistry not given here) [compound 24740]”, for which the “% Control” value was 122% (Table 4, 10 nM); 119% (Table 4, 30 nM); 106% (Table 4, 100 nM); 88% (Table 4, 300 nM). Under “Table 4, 300 nM (highest dose)”, the “% Inhib.” value amounted to 12%.
For “24741 (AGACGTTATGGCTATTCTCT; phosphorothioate deoxy, further chemistry not given here) [compound 24741]”, the “% Control” value (Table 4, 10 nM) amounted to 109%; the “% Control” value (Table 4, 30 nM) is listed as 113%; the “% Control” value (Table 4, 100 nM) was determined as 125%; the “% Control” value (Table 4, 300 nM) stood at 127%.
On the same counts, the results for “24742 (TTTAGTGACAAAGACGTTAT; phosphorothioate, 2'-MOE, 5-methyl-C, further chemistry not given here) [compound 24742]” are 112%, 107%, 123% and 128%.
The matching figures for “24743 (GAAGGCCCCTGGGGAACATT; phosphorothioate, 2'-MOE, 5-methyl-C, further chemistry not given here) [compound 24743]”: 96%, 121%, 117% and 105%.
The matching figures for “24744 (AGACGTTATGGCTATTCTCT; phosphorothioate, 2'-MOE, 5-methyl-C, further chemistry not given here) [compound 24744]”: 121%, 110%, 118% and 118%.
For “26640 (CCACTGATTGTCTCTCTCTT; phosphorothioate, 2'-MOE/deoxy, further chemistry not given here) [compound 26640]”, the “inhibition (Example 11)” value is listed as at least 40%. For the setting “Table 6, 10 nM”, the “% Control” value turned out to be 91%. Under “Table 6, 30 nM”, the “% Control” value worked out at 83% and the “% Inhib.” value turned out to be 17%. For the same substance, for the setting “Table 6, 100 nM”, the “% Control” value is listed as 62% and the “% Inhib.” value worked out at 38%. For the same substance, for the setting “Table 6, 300 nM”, the “% Control” value was found to be 35%. Moreover, the “% Inhib.” value (Table 6, 300 nM (highest dose)) is given as 65%.
Turning to “26641 (GAGCTTATTTTCATTCTTTA; phosphorothioate, 2'-MOE/deoxy, further chemistry not given here) [compound 26641]”, the “inhibition (Example 11)” value is at least 40%. Where the note is “Table 6, 10 nM”, the “% Control” value is 88% and the “% Inhib.” value is on record as 12%. For the setting “Table 6, 30 nM”, the “% Control” value is 85% and the “% Inhib.” value worked out at 15%. Besides, for the setting “Table 6, 100 nM”, the “% Control” value was found to be 67% and the “% Inhib.” value is recorded as 33%. For the same substance, the “% Control” value (Table 6, 300 nM) came out at 31%. The “% Inhib.” value (Table 6, 300 nM (highest dose)) is listed as 69%.
In the case of “26642 (TCAGGGTGGCTTAAAGAAGC; phosphorothioate, 2'-MOE/deoxy, further chemistry not given here) [compound 26642]”, the “inhibition (Example 11)” value is at least 40%. For the setting “Table 6, 10 nM”, the “% Control” value is reported as 84% and the “% Inhib.” value was determined as 16%. Also, for the setting “Table 6, 30 nM”, the “% Control” value is on record as 77% and the “% Inhib.” value turned out to be 23%. For the same substance, under “Table 6, 100 nM”, the “% Control” value is reported as 56% and the “% Inhib.” value is 44%. Under “Table 6, 300 nM”, the “% Control” value amounted to 23%. For the same substance, the “% Inhib.” value (Table 6, 300 nM (highest dose)) turned out to be 77%. In addition, under setting [1], the “% Control” value amounted to 67% and the “% Inhib.” value came to 33%.
As to “26643 (TTGCCCTTATATGAGAAACA; phosphorothioate, 2'-MOE, 5-methyl-C, further chemistry not given here) [compound 26643]”, the “% Control” value amounted to 90% (Table 4, 10 nM); 95% (Table 4, 30 nM); 93% (Table 4, 100 nM); 66% (Table 4, 300 nM). Moreover, the “% Inhib.” value is, setting by setting: (Table 4, 10 nM) 10%; (Table 4, 300 nM (highest dose)) 34%.
Take “26644 (TTTCCATTCTCTCAATTTGA; phosphorothioate, 2'-MOE/deoxy, further chemistry not given here) [compound 26644]”: the “inhibition (Example 11)” value is at least 40%. Moreover, the “% Control” value (Table 6, 10 nM) turned out to be 99%. The “% Control” value (Table 6, 30 nM) is 94%. Moreover, where the note is “Table 6, 100 nM”, the “% Control” value came out at 78% and the “% Inhib.” value was 22%. Further, the “% Control” value (Table 6, 300 nM) is 48%. The “% Inhib.” value (Table 6, 300 nM (highest dose)) was 52%.
As for “100025 (antisense CCCAGCACATCGGCTCTCGG; chemistry not given here) [compound 100025]”, under setting [1], the “% Control” value came out at 97% and the “% Inhib.” value is 3%.
In the case of “107229 (antisense AGTCCGCAGAGCGCGGGATG; chemistry not given here) [compound 107229]”, the “% Control” value under setting [1] turned out to be 104%.
For the substance “107230 (antisense AGACTCGCGTCCTGGCCCGG; chemistry not given here) [compound 107230]”, under setting [1], the “% Control” value was 73% and the “% Inhib.” value was 27%.
For “107231 (antisense GTGCGGAGGCGCAGGGCCGG; chemistry not given here) [compound 107231]”, under setting [1], the “% Control” value turned out to be 115%.
For the substance “107232 (antisense CCGGTTTCTGCCGCCGAGCC; chemistry not given here) [compound 107232]”, under setting [1], the “% Control” value worked out at 83% and the “% Inhib.” value came out at 17%.
Take “107233 (antisense ATGCGACGGTTGGCCAACGG; chemistry not given here) [compound 107233]”: under setting [1], the “% Control” value is reported as 57% and the “% Inhib.” value is reported as 43%.
In the case of “107234 (antisense CTTCCCAAGCCATGCGCTCT; chemistry not given here) [compound 107234]”, the “% Control” value under setting [1] is given as 47%.
The same measure, in the same setting: the same measure for “107235 (antisense TCGCTTCCCAAGCCATGCGC; chemistry not given here) [compound 107235]”: 36%.
On the same count and under the same terms, then “107236 (antisense GCCTCGCTTCCCAAGCCATG; chemistry not given here) [compound 107236]”, with 43%; and “107237 (antisense CGCGCCTCGCTTCCCAAGCC; chemistry not given here) [compound 107237]”, with 46%; and “107238 (antisense TCCTTGCCCTTATATGAGAA; chemistry not given here) [compound 107238]”, with 49%.
The same measure, in the same setting: then “107239 (antisense ACTTCCTTGCCCTTATATGA; chemistry not given here) [compound 107239]”, with 29%; and “107240 (antisense AGAGTTATCTGTGACTTCAC; chemistry not given here) [compound 107240]”, with 40%; and “107241 (antisense GATACTGAGGTCCTCTTCCG; chemistry not given here) [compound 107241]”, with 36%.

The values are drawn from patent US6258790A, “Antisense modulation of integrin α4 expression” (Isis Pharmaceuticals, Inc., priority 1999, dated 2001).
